From paper PMC6409085, “Three odorant-binding proteins are involved in the behavioral response of Sogatella furcifera to rice plant volatiles” (PeerJ, 2019)
pIC50: −log10 of the molar value. Values joined by “and” are separate entries in the source; they are usually repeats but may differ in a detail not shown here. Equal entries are not always repeated.

Columns and labels:
SfurOBP11 = SfurOBP11 (Sogatella furcifera, UniProt V5T6E3); experiment: biochemical; format: binding
Method in brief: (§1)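 Fluorescence competitive binding with 1-NPN as reporter: 2.0 µM protein and 2.0 µM 1-NPN in 50 mM Tris-HCl pH 7.4, odorant added at 2–20 µM final. Excitation 337 nm, emission 390–490 nm read 2 min after addition, triplicates. Ki = IC50/(1 + [1-NPN]/K1-NPN).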

SfurOBP2 = SfurOBP2 (Sogatella furcifera, UniProt V5T759); experiment: biochemical; format: binding
Chain of SfurOBP2 (V5T759 entry or part of it): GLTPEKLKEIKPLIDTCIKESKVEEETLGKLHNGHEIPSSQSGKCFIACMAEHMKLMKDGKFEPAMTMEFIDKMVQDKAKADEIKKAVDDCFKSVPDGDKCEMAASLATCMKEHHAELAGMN
Method in brief: as §1

SfurOBP3 = SfurOBP3 (Sogatella furcifera, UniProt V5T818); experiment: biochemical; format: binding; settings: for Fluorescence competitive binding assay, fluorescence intensity: OBP3, three replicate columns
Chain of SfurOBP3 (V5T818 entry or part of it): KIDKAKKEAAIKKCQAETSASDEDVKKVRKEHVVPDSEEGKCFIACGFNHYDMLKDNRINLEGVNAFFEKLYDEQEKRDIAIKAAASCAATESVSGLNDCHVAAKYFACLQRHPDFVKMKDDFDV
Method in brief: as §1

SfurOBP1 = SfurOBP1 (Sogatella furcifera, UniProt V5T8N5); experiment: biochemical; format: binding; settings: for Fluorescence competitive binding assay, fluorescence intensity: OBP1, three replicate columns
Chain of SfurOBP1 (V5T8N5 entry or part of it): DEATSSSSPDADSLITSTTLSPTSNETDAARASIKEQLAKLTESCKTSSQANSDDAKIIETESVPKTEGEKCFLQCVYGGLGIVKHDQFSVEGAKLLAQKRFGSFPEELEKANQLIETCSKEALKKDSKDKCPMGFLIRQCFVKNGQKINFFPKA
Method in brief: as §1

S. furcifera adults = experiment: Y-tube olfactometer behavioral trials; format: in vivo, Sogatella furcifera; settings: odorant 50 µL/L vs hexane; adults
Method in brief: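 Single S. furcifera adults (2 days post-emergence, starved 0.5 h) chose between odorant (100 µL of 50 µL/L on filter paper) and hexane control in a glass Y-tube, charcoal-filtered humidified air 300 mL/min per arm, 25 ± 1 °C, 50% RH. Choice scored if insect passed half an arm and stayed >1 min within 10 min; 45 insects per compound, chi-squared test.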

Chain of SfurOBP11 (V5T6E3 entry or part of it): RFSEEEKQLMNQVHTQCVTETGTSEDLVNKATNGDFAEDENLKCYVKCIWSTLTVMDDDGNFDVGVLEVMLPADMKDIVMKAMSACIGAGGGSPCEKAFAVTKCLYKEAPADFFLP

Cc1ccc(C(C)C)cc1 [4-isopropyltoluene]
pIC50 (SfurOBP11): < 4.70 | Fluorescence intensity, fluorescence competitive binding assay, OBP11 (SfurOBP11; ligand concentration 2, replicate 1): 35978 | Fluorescence intensity, fluorescence competitive binding assay, OBP11 (SfurOBP11; ligand concentration 2, replicate 2): 29566 | Fluorescence intensity, fluorescence competitive binding assay, OBP11 (SfurOBP11; ligand concentration 2, replicate 3): 32252 | Fluorescence intensity, fluorescence competitive binding assay, OBP11 (SfurOBP11; ligand concentration 4, replicate 1): 30015 | Fluorescence intensity, fluorescence competitive binding assay, OBP11 (SfurOBP11; ligand concentration 4, replicate 2): 32067 | Fluorescence intensity, fluorescence competitive binding assay, OBP11 (SfurOBP11; ligand concentration 4, replicate 3): 31035 | Fluorescence intensity, fluorescence competitive binding assay, OBP11 (SfurOBP11; ligand concentration 6, replicate 1): 30703 | Fluorescence intensity, fluorescence competitive binding assay, OBP11 (SfurOBP11; ligand concentration 6, replicate 2): 29596 | Fluorescence intensity, fluorescence competitive binding assay, OBP11 (SfurOBP11; ligand concentration 6, replicate 3): 29854 | Fluorescence intensity, fluorescence competitive binding assay, OBP11 (SfurOBP11; ligand concentration 8, replicate 1): 26981 | Fluorescence intensity, fluorescence competitive binding assay, OBP11 (SfurOBP11; ligand concentration 8, replicate 2): 27991 | Fluorescence intensity, fluorescence competitive binding assay, OBP11 (SfurOBP11; ligand concentration 8, replicate 3): 25842 | Fluorescence intensity, fluorescence competitive binding assay, OBP11 (SfurOBP11; ligand concentration 10, replicate 1): 25875 | Fluorescence intensity, fluorescence competitive binding assay, OBP11 (SfurOBP11; ligand concentration 10, replicate 2): 25879 | Fluorescence intensity, fluorescence competitive binding assay, OBP11 (SfurOBP11; ligand concentration 10, replicate 3): 25958 | Fluorescence intensity, fluorescence competitive binding assay, OBP11 (SfurOBP11; ligand concentration 12, replicate 1): 23828 | Fluorescence intensity, fluorescence competitive binding assay, OBP11 (SfurOBP11; ligand concentration 12, replicate 2): 23071 | Fluorescence intensity, fluorescence competitive binding assay, OBP11 (SfurOBP11; ligand concentration 12, replicate 3): 23450 | Fluorescence intensity, fluorescence competitive binding assay, OBP11 (SfurOBP11; ligand concentration 14, replicate 1): 21639 | Fluorescence intensity, fluorescence competitive binding assay, OBP11 (SfurOBP11; ligand concentration 14, replicate 2): 22165 | Fluorescence intensity, fluorescence competitive binding assay, OBP11 (SfurOBP11; ligand concentration 14, replicate 3): 24226 | Fluorescence intensity, fluorescence competitive binding assay, OBP11 (SfurOBP11; ligand concentration 16, replicate 1): 19389 | Fluorescence intensity, fluorescence competitive binding assay, OBP11 (SfurOBP11; ligand concentration 16, replicate 2): 17044 | Fluorescence intensity, fluorescence competitive binding assay, OBP11 (SfurOBP11; ligand concentration 16, replicate 3): 20238 | Fluorescence intensity, fluorescence competitive binding assay, OBP11 (SfurOBP11; ligand concentration 18, replicate 1): 24841 | Fluorescence intensity, fluorescence competitive binding assay, OBP11 (SfurOBP11; ligand concentration 18, replicate 2): 23918 | Fluorescence intensity, fluorescence competitive binding assay, OBP11 (SfurOBP11; ligand concentration 18, replicate 3): 23440 | Fluorescence intensity, fluorescence competitive binding assay, OBP11 (SfurOBP11; ligand concentration 20, replicate 1): 24558 | Fluorescence intensity, fluorescence competitive binding assay, OBP11 (SfurOBP11; ligand concentration 20, replicate 2): 23570 | Fluorescence intensity, fluorescence competitive binding assay, OBP11 (SfurOBP11; ligand concentration 20, replicate 3): 24060 | pIC50 (SfurOBP2): < 4.70 | Fluorescence competitive binding assay, OBP2 (raw fluorescence reading) (SfurOBP2; ligand concentration 2 (unit not given), replicate column 1 of 3): 17529 | Fluorescence competitive binding assay, OBP2 (raw fluorescence reading) (SfurOBP2; ligand concentration 2 (unit not given), replicate column 2 of 3): 17068 | Fluorescence competitive binding assay, OBP2 (raw fluorescence reading) (SfurOBP2; ligand concentration 2 (unit not given), replicate column 3 of 3): 16667 | Fluorescence competitive binding assay, OBP2 (raw fluorescence reading) (SfurOBP2; ligand concentration 4 (unit not given), replicate column 1 of 3): 17068 | Fluorescence competitive binding assay, OBP2 (raw fluorescence reading) (SfurOBP2; ligand concentration 4 (unit not given), replicate column 2 of 3): 16662 | Fluorescence competitive binding assay, OBP2 (raw fluorescence reading) (SfurOBP2; ligand concentration 4 (unit not given), replicate column 3 of 3): 16270 | Fluorescence competitive binding assay, OBP2 (raw fluorescence reading) (SfurOBP2; ligand concentration 6 (unit not given), replicate column 1 of 3): 17127 | Fluorescence competitive binding assay, OBP2 (raw fluorescence reading) (SfurOBP2; ligand concentration 6 (unit not given), replicate column 2 of 3): 17348 | Fluorescence competitive binding assay, OBP2 (raw fluorescence reading) (SfurOBP2; ligand concentration 6 (unit not given), replicate column 3 of 3): 16845 | Fluorescence competitive binding assay, OBP2 (raw fluorescence reading) (SfurOBP2; ligand concentration 8 (unit not given), replicate column 1 of 3): 17260 | Fluorescence competitive binding assay, OBP2 (raw fluorescence reading) (SfurOBP2; ligand concentration 8 (unit not given), replicate column 2 of 3): 16330 | Fluorescence competitive binding assay, OBP2 (raw fluorescence reading) (SfurOBP2; ligand concentration 8 (unit not given), replicate column 3 of 3): 16495 | Fluorescence competitive binding assay, OBP2 (raw fluorescence reading) (SfurOBP2; ligand concentration 10 (unit not given), replicate column 1 of 3): 16487 | Fluorescence competitive binding assay, OBP2 (raw fluorescence reading) (SfurOBP2; ligand concentration 10 (unit not given), replicate column 2 of 3): 17551 | Fluorescence competitive binding assay, OBP2 (raw fluorescence reading) (SfurOBP2; ligand concentration 10 (unit not given), replicate column 3 of 3): 16673 | Fluorescence competitive binding assay, OBP2 (raw fluorescence reading) (SfurOBP2; ligand concentration 12 (unit not given), replicate column 1 of 3): 14433 | Fluorescence competitive binding assay, OBP2 (raw fluorescence reading) (SfurOBP2; ligand concentration 12 (unit not given), replicate column 2 of 3): 15818 | Fluorescence competitive binding assay, OBP2 (raw fluorescence reading) (SfurOBP2; ligand concentration 12 (unit not given), replicate column 3 of 3): 14693 | Fluorescence competitive binding assay, OBP2 (raw fluorescence reading) (SfurOBP2; ligand concentration 14 (unit not given), replicate column 1 of 3): 14333 | Fluorescence competitive binding assay, OBP2 (raw fluorescence reading) (SfurOBP2; ligand concentration 14 (unit not given), replicate column 2 of 3): 14565 | Fluorescence competitive binding assay, OBP2 (raw fluorescence reading) (SfurOBP2; ligand concentration 14 (unit not given), replicate column 3 of 3): 13503 | Fluorescence competitive binding assay, OBP2 (raw fluorescence reading) (SfurOBP2; ligand concentration 16 (unit not given), replicate column 1 of 3): 12972 | Fluorescence competitive binding assay, OBP2 (raw fluorescence reading) (SfurOBP2; ligand concentration 16 (unit not given), replicate column 2 of 3): 13456 | Fluorescence competitive binding assay, OBP2 (raw fluorescence reading) (SfurOBP2; ligand concentration 16 (unit not given), replicate column 3 of 3): 13282 | Fluorescence competitive binding assay, OBP2 (raw fluorescence reading) (SfurOBP2; ligand concentration 18 (unit not given), replicate column 1 of 3): 13043 | Fluorescence competitive binding assay, OBP2 (raw fluorescence reading) (SfurOBP2; ligand concentration 18 (unit not given), replicate column 2 of 3): 13102 | Fluorescence competitive binding assay, OBP2 (raw fluorescence reading) (SfurOBP2; ligand concentration 18 (unit not given), replicate column 3 of 3): 13475 | Fluorescence competitive binding assay, OBP2 (raw fluorescence reading) (SfurOBP2; ligand concentration 20 (unit not given), replicate column 1 of 3): 13105 | Fluorescence competitive binding assay, OBP2 (raw fluorescence reading) (SfurOBP2; ligand concentration 20 (unit not given), replicate column 2 of 3): 12354 | Fluorescence competitive binding assay, OBP2 (raw fluorescence reading) (SfurOBP2; ligand concentration 20 (unit not given), replicate column 3 of 3): 13093 | pIC50 (SfurOBP3): < 4.70 | Fluorescence competitive binding assay, fluorescence intensity (SfurOBP3; ligand concentration 2): 76459 and 72745 and 73014 | Fluorescence competitive binding assay, fluorescence intensity (SfurOBP3; ligand concentration 4): 75454 and 75539 and 76517 | Fluorescence competitive binding assay, fluorescence intensity (SfurOBP3; ligand concentration 6): 77021 and 76644 and 73341 | Fluorescence competitive binding assay, fluorescence intensity (SfurOBP3; ligand concentration 8): 70448 and 67651 and 65820 | Fluorescence competitive binding assay, fluorescence intensity (SfurOBP3; ligand concentration 10): 65984 and 64535 and 66083 | Fluorescence competitive binding assay, fluorescence intensity (SfurOBP3; ligand concentration 12): 59229 and 62714 and 59705 | Fluorescence competitive binding assay, fluorescence intensity (SfurOBP3; ligand concentration 14): 51855 and 54624 and 58162 | Fluorescence competitive binding assay, fluorescence intensity (SfurOBP3; ligand concentration 16): 47509 and 50343 and 51946 | Fluorescence competitive binding assay, fluorescence intensity (SfurOBP3; ligand concentration 18): 53658 and 55976 and 54775 | Fluorescence competitive binding assay, fluorescence intensity (SfurOBP3; ligand concentration 20): 49838 and 49582 and 48822 | pIC50 (SfurOBP1): < 4.70 | Fluorescence competitive binding assay, fluorescence intensity (SfurOBP1; ligand concentration 2 (μM)): 7244 and 8974 and 9151 | Fluorescence competitive binding assay, fluorescence intensity (SfurOBP1; ligand concentration 4 (μM)): 8883 and 8922 and 8958 | Fluorescence competitive binding assay, fluorescence intensity (SfurOBP1; ligand concentration 6 (μM)): 7592 and 6723 and 7351 | Fluorescence competitive binding assay, fluorescence intensity (SfurOBP1; ligand concentration 8 (μM)): 6920 and 7774 and 7302 | Fluorescence competitive binding assay, fluorescence intensity (SfurOBP1; ligand concentration 10 (μM)): 7780 and 7649 and 7941 | Fluorescence competitive binding assay, fluorescence intensity (SfurOBP1; ligand concentration 12 (μM)): 6330 and 8293 and 7991 | Fluorescence competitive binding assay, fluorescence intensity (SfurOBP1; ligand concentration 14 (μM)): 6493 and 6423 and 6689 | Fluorescence competitive binding assay, fluorescence intensity (SfurOBP1; ligand concentration 16 (μM)): 5419 and 7344 and 6052 | Fluorescence competitive binding assay, fluorescence intensity (SfurOBP1; ligand concentration 18 (μM)): 6795 and 8973 and 7227 | Fluorescence competitive binding assay, fluorescence intensity (SfurOBP1; ligand concentration 20 (μM)): 8723 and 7567 and 6306 | number of insects choosing hexane arm (S. furcifera adults): 13 | number of insects choosing volatilies arm (S. furcifera adults): 11 | number of insects failed (no choice) (S. furcifera adults): 16
